Laboratory results from patent publication US20230201323A1, “VACCINE FORMULATIONS” (EUUALY S.A., priority 2020, published 2023).
Where a SMILES comes first, the peptide text is derived from it.

Assays:
[1] = tested on: AQP4-specific CD4+ T cells; assay: Phenotype of CD4+ T cells from AQP4 KO C57BL/6 mice immunized with AQP4 peptide; type: in vivo
Protocol: The C57BL/6 (H-2b) strain is the elective animal model as its natural repertoire of CD4+ T cells contains cells activable by immunisation with AQP4 epitopes whose sequences are entirely superposable to those activating human CD4+ T cells. Besides, the homology between human and mouse AQP4 is 93%. However, due to natural tolerance to AQP4, it remains difficult to generate T cells with a pathogenic potential. Therefore, C57BL/6 mice lacking expression of AQP4 (AQP4 KO) are used.
is used at 100 μg emulsified in complete Freund's adjuvant to immunize AQP4 KO C57BL/6 mice in the footpad, followed by 3 injections of 100 μg in incomplete Freund's adjuvant at 10-days intervals. Four weeks after the last injection, the mice are sacrificed and splenocytes are prepared. After separation of CD4+ T cells from the bulk splenocytes, lymphocytes specific for peptide of SEQ ID NO:1 are isolated by incubation with magnetic beads coated with class II (H2b) molecules loaded with peptide of SEQ ID NO:1.
AQP4-specific CD4+ T cells are then phenotyped and found to belong to the Th17 subtype.
A similar experiment is carried out in AQP4 KO C57BL/6 mice immunized with the same peptide, but containing a redox motif (in bold) in its flanking residues (SEQ ID NO:2), and with alum instead of CFA/IFA

[2] = tested on: wildtype C57BL/6 mice; assay: IV transfer of peptide-elicited CD4+ T cells into wildtype C57BL/6 mice, spinal cord examination; type: in vivo; details: 10^6 peptide-elicited CD4+ T cells per mouse IV, spinal cord ten days afterwards
Protocol: Such cells are then administered by IV injection in wildtype C57BL/6 mice (10^6 cells per mouse). Ten days afterwards, mice are sacrificed and the spinal cord isolated.
In a control experiment, 10^6 cells are administered by IV injection in wildtype C57BL/6 mice.

[3] = tested on: Thy1.1 CD4+ T cells obtained by immunisation with peptide of SEQ ID NO:1; assay: Mixed culture of Thy1.1 and Thy1.2 CD4+ T cells on antigen-presenting cells loaded with peptide of SEQ ID NO:1; type: cell-based, C57BL/6 mice; details: 1/1 mixture with Thy1.2 CD4+ T cells elicited by SEQ ID NO:2, 7 days of culture
Protocol: Next, to determine whether CD4+ T cells obtained by immunisation with peptide of SEQ ID NO:2 could suppress pathogenic CD4+ T cells obtained by immunisation with peptide of SEQ ID NO:1, mixed cultures were performed with antigen-presenting cells loaded with peptide of SEQ ID NO:1. For such in vitro experiments, the two CD4+ T cell populations were obtained from C57BL/6 mice expressing either the Thy1.1 or the Thy1.2 surface phenotypic marker, identified by specific antibodies.
Dendritic cells converted from peripheral blood monocytes were used as antigen-presenting cells. Thus, 50×10^6 cells were incubated with 10 μg of peptide of SEQ ID NO:1 for 16 h at room temperature, washed and then incubated with a 1/1 mixture of Thy1.1 CD4+ T cells obtained by immunisation with peptide of SEQ ID NO:1 and Thy1.2 CD4+ T cells obtained by immunisation with peptide of SEQ ID NO:2. The phenotype of each CD4+ T cell population was then evaluated after 7 days of culture.

[4] = tested on: NOD mice; assay: Insulitis by pancreas histology in immunized NOD mice; type: in vivo; details: female NOD mice, 100 μg in aluminium hydroxide four times at a week interval from six weeks old, histology at week 15
Excerpt: Non-obese diabetes (NOD) mice are the most used animal model for diabetes due to the spontaneous development of insulitis, hyperglycaemia and diabetes in a context wherein both inflammation and auto-immunity play determining roles. The local lesion, insulitis, starts accumulating after a few weeks, so that therapeutic interventions should be considered as suppressive rather than preventive.
Six-weeks old female NOD mice are immunized with a peptide made of a class II-restricted T cell epitope of GAD65 (319-333: ILEVKQKGFVPFLVS, SEQ ID NO:3) or with the same peptide containing a redox motif (bold figures) in its flanking residues
Immunisation is carried out using 100 μg of peptide of SEQ ID NO:4 in aluminium hydroxide, four times at a week interval. Control mice receive peptide of SEQ ID NO:3 according to the same injection schedule.
Mice are then sacrificed at week 15, the pancreas is isolated and evaluated by histology to identify insulitis.

[5] = tested on: CD4+ T cells; assay: Phenotype and cytokine production of Balb/c CD4+ T cells expanded in vitro with Staph. aureus nuclease peptides; type: cell-based, Balb/c mice; details: after 2 cycles of stimulation on peptide-loaded antigen-presenting cells
Protocol: Balb/c mice kept under open conditions (not pathogen-free) show specific antibodies and CD4+ T cells towards Staph. aureus nuclease. Splenocytes are obtained from such mice to prepare CD4+ T cells. Such cells are cultured and expanded in the presence of antigen-presenting cells loaded with either peptide of sequence
After 2 cycles of stimulation, the phenotype and cytokine production of cells are examined. […] Other markers of CD4+ T cells with an immune suppressive function include DLL4 (Rubey et al. Diabetes 2020 69(5):915-926, CTLA2 (Sugita et al. J Immunol 2009 183(8):5013-22), TGF-beta2 (Mir et al. Immunology 2015 146(4):547-56, arginase (Khoshnejad et al. Mol Ther Methods Clin Dev 2020 18:652-663 and meteorin (Baht et al. Nat Metab 2020 2(3):278-289)

[6] = tested on: cells obtained by stimulation with peptide of SEQ ID NO:7; assay: Coculture of CFSE-labelled SEQ ID NO:7 cells with SEQ ID NO:8 cells, proliferation by CFSE dilution; type: cell-based, Balb/c mice
Protocol: Cells obtained by stimulation with peptide of SEQ ID NO:7 were labelled with CFSE and cultured together with cells obtained with peptide of SEQ ID NO:8 at a 1 to 1 ratio on antigen-presenting cells loaded with peptide of SEQ ID NO:7.
After 7 days of coculture, the proliferation of cells was measured by CFSE dilution.

[7] = tested on: C57BL/6 female mice
Protocol: C57BL/6 female mice are treated with an injection of 100 μl containing 200 μg of peptide encompassing amino acid residues […], namely:
and 100 μl of complete Freund's adjuvant. In addition, […] of pertussis toxin is administered intraperitoneally on days 0 and 2 to permeate the blood-brain barrier.
One month after the date of disease induction, the spinal cord is examined for inflammatory infiltrates. Tissues are fixed in formaldehyde and stained with hematoxilin-eosin for cell counting. T cells are identified using an anti-CD3 antibody. Demyelination is detected by staining with Luxol Fast Blue (LFB).
To establish that cells of the present invention exert a suppressive effect on pathogenic T cells, two group of C57BL/6 female mice was treated by 4 weekly subcutaneous injections of 100 μg of peptide
corresponding to peptide of SEQ ID NO:5 but containing a redox motif (in bold). These injections were made with a formulation containing aluminum hydroxide as adjuvant.
A second group of mice immunized with peptide of SEQ ID NO:6 was then treated as in the positive control group, namely peptide of SEQ ID:5 with complete Freund's adjuvant and pertussis toxin.

[8] = tested on: CD4+ obtained from the spleen of mice immunized with peptide of SEQ ID NO:3; assay: Co-culture of CFSE-labelled CD4+ cells (SEQ ID NO:3) with CD4+ T cells from mice immunized with SEQ ID NO:4; type: cell-based, NOD mice
[9] = AQP4 KO C57BL/6 mice immunized with peptide in alum

Compound: HCPYCSIMVAFKGVWTQAFWKAV (AQP4redox; (9)..(20) core epitope) [SEQ ID NO:2, same AQP4 peptide containing a redox motif in its flanking residues]
- factors produced by CD4+ T cells obtained from the spleen [1, 9]: PGE2 (prostaglandin E2) and IL-10
- markers characterizing CD4+ T cells obtained from the spleen [1, 9]: TIGIT and CTLA2
- spinal cord inflammatory lesions / infiltration [2]: no inflammatory lesions or T lymphocytes
- phenotype of Thy1.1 CD4+ T cells (SEQ ID NO:1-elicited) in mixed culture [3]: lost their phenotypic characteristics of Th17 cells
- proliferation of Thy1.1 CD4+ T cells (SEQ ID NO:1-elicited) in mixed culture [3]: no proliferation

Compound: ILEVKQKGFVPFLVS (GAD65 epitope) [SEQ ID NO:3, reference compound]
- islets with no sign of inflammation or cellular infiltrate [4]: the reverse

Compound: HCYPCHNTHEQHLRKS (Sa Nucleaseredox) [SEQ ID NO:8, Staph. aureus nuclease peptide containing a redox motif]
- cytokine production of cells obtained by stimulation [5]: IL-4, IL-10, IL-13 and amphiregulin (AREG)
- surface expression on cells obtained by stimulation [5]: TIGIT and BLIMP-1
- proliferation of SEQ ID NO:7-obtained cells in presence of SEQ ID NO:8-obtained cells (CFSE dilution) ([6]; 1 to 1 ratio, antigen-presenting cells loaded with SEQ ID NO:7, 7 days of coculture): do not proliferate
- phenotype of SEQ ID NO:8-obtained cells after coculture ([6]; 7 days of coculture on antigen-presenting cells loaded with SEQ ID NO:7): unchanged phenotype

Compound: TGILDSIGRFFSG (MBP) [SEQ ID NO:5]
- demyelination by Luxol Fast Blue (LFB) staining ([7]; SEQ ID NO:5 = disease induction, SEQ ID NO:6 = 4 weekly sc 100 μg in aluminum hydroxide before induction): signs of demyelination
- T lymphocyte / inflammatory infiltrates in the spinal cord ([7]; hematoxilin-eosin and anti-CD3, SEQ ID NO:5 = disease induction, SEQ ID NO:6 = 4 weekly sc 100 μg in aluminum hydroxide before induction): significant infiltrates including T lymphocytes

Compound: CC[C@H](C)[C@H](NC(=O)CNC(=O)[C@@H](NC(=O)[C@H](CS)NC(=O)[C@@H]1CCCN1C(=O)[C@H](Cc1ccc(O)cc1)NC(=O)[C@H](CS)NC(=O)[C@@H](N)Cc1c[nH]cn1)[C@@H](C)O)C(=O)N[C@@H](CC(C)C)C(=O)N[C@@H](CC(=O)O)C(=O)N[C@@H](CO)C(=O)N[C@H](C(=O)NCC(=O)N[C@@H](CCCNC(=N)N)C(=O)N[C@@H](Cc1ccccc1)C(=O)N[C@@H](Cc1ccccc1)C(=O)N[C@@H](CO)C(=O)NCC(=O)O)[C@@H](C)CC [SEQ ID NO:6, HCYPCTGILDSIGRFFSG] (H-HCYPCTGILDSIGRFFSG-OH)
- signs of disease after immunisation alone ([7]; 4 weekly subcutaneous injections of 100 μg with aluminum hydroxide, no disease induction): no signs of disease

Compound: HCYPCILEVKQKGFVPF (GAD65redox) [SEQ ID NO:4]
- islets with no sign of inflammation or cellular infiltrate [4]: > 70%
- capacity of recovered CFSE-labeled cells to proliferate upon presentation of cognate epitope (SEQ ID NO:3) ([8]; cells recovered from co-culture with SEQ ID NO:4-elicited CD4+ T cells): lost their capacity to proliferate
- reduction in numbers of CFSE-labelled CD4+ cells (SEQ ID NO:3) by co-culture ([8]; co-culture with CD4+ T cells from spleen of mice immunized with SEQ ID NO:4): circa 5%

Compound: SIMVAFKGVWTQAFWKAV (AQP4 epitope; (4)..(15) core epitope) [SEQ ID NO:1, peptide encompassing amino acid residues 21-38 of AQP4, no redox motif, reference compound]
- subtype of AQP4-specific CD4+ T cells ([1]; AQP4 KO C57BL/6 mice, 100 μg in CFA then 3 x 100 μg in IFA, splenocytes four weeks after last injection): Th17 subtype
- spinal cord inflammatory lesions / infiltration [2]: Infiltration with inflammatory cells, including AQP4-specific CD4+ T cells is observed

Compound: NTHEQHLRKS (Sa Nuclease) [SEQ ID NO:7, Staph. aureus nuclease peptide, no redox motif, reference compound]
- cytokine production of cells obtained by stimulation [5]: interferon gamma (IFN-γ)
- phenotype of cells obtained by stimulation [5]: characteristics of Th1 cells
